Like-named read-outs stand apart in the source and are kept apart here.
Columns and labels:
EGFR^WT = EGFR^WT (Homo sapiens, UniProt P00533); experiment: EGFR inhibitory assay (Z-lyte kinase assay kit, Tyr 4 peptide, FRET-based); assay type: biochemical
Experimental: The test compounds were analyzed for EGFR inhibitory potential using z-lyte kinase assay kit–tyr 4 peptide assay kit (catalogue no. PV3193; Thermofisher, Mumbai, Maharashtra, India). The assay biochemically is FRET-based, which involves coupled enzyme format that relies on differential sensitivity of proteolytic cleavage of phosphorylated and non-phosphorylated peptides. The reaction proceeds in two steps, first involving the kinase reaction that is concerned with the transfer of phosphate group from ATP to single tyrosine residue, followed by development reaction, which involves site-protease role and cleaves non-phosphorylated peptide, allowing the disruption of FRET between donor and acceptor end of phosphorylated peptide, which facilitates deducing the emission ratio. The assay was performed per manufacturer protocol and per our published reports. […] Next, the assay master mix was prepared under ice-cold conditions by thawing and mixing kinase buffer (133 µL), kinase peptides (0.5 µL), phosphopeptide (0.5 µL) along with ATP (0.5 µL) solution. The master mix was added to testing compounds and further incubated for 1 h at room temperature and allowed the kinase reaction followed by development reaction to occur. After the stipulated period, reaction was stopped by addition of 5 µL stop solution to each reaction mixture.
The extent of phosphorylation was calculated by the following formula (Equation (1)):(1) % phosphorylation =1− (Emission ratio× F100%)− C100%/(C0%−C100%) + [Emission ratio (F100%−F0%)] where C0% = Average coumarin emission signal of the […]; F100% = Average Fluorescein emission signal of the 100% Phos. Control; F0% = Average Fluorescein emission signal of the 0% Phos. Control.

A549 cells = experiment: Flow cytometric PI cell cycle analysis in A549; assay type: cell-based, human; settings: A549, sub-IC50 concentration, 48 h
Experimental: The assays were performed following our previous published reports. Briefly, A549 cells were cultured in 100 mm dishes and maintained to attain at least 80% confluency. […] After the stipulated period, the remaining media were collected along with the cells (trypsinization) and were centrifuged (1200 rpm for 5 min) and washed two times using 1X PBS. Furthermore, the cells were raised to the concentration of 400 µL and were equally divided (5 × 10^4) in four aliquots. The first three aliquots were added with H2DCFDA (10 µM/100 µL), JC-1 dye (1 mM/mL) and Annexin V and PI (as per manufacturer protocol (Thermo Fisher: V13242, Maharashtra, India) to analyze detection of alteration in ROS, ∆ψm and mode of cell death, respectively. The cancer cells were incubated in the dark for 30 min at rt before analysis. Next, the fourth aliquot cells were fixed using chilled ethanol (70%) and incubated at −20 °C for 4 h to allow fixing. After 4 h, cells were centrifuged (2200 rpm for 10 min) and washed twice with 1X PBS. Furthermore, the cells were treated with RNase and PI was added and they were further incubated for 30 min in the dark before analysis. All the samples were analyzed using BD C6 flow cytometer using various FL channels.

[1] = tested on: MDA-MB-231 (breast cancer) cells; experiment: MTT antiproliferative assay, MDA-MB-231; settings: Homo sapiens, MDA-MB-231, 48 h, read-out: IC50 (μM) ± SEM, MDA-MB-231 (Breast Cancer)
MDA-MB-231 cells = experiment: H2DCFDA assay of ROS in MDA-MB-231; assay type: cell-based, human; settings: sub-IC50 concentration, 48 h
MCF-7 (breast) cells = experiment: H2DCFDA assay of ROS in MCF-7; assay type: cell-based; settings: sub-IC50 concentration, 48 h
[2] = tested on: HCT-116 WT (colon cancer) cells; experiment: MTT antiproliferative assay, HCT-116 WT; settings: Homo sapiens, HCT-116, 48 h, read-out: IC50 (μM) ± SEM, HCT-116 WT (Colon Cancer)
[3] = tested on: A549 (lung cancer) cells harboring EGFR^WT; experiment: MTT antiproliferative assay, A549; settings: Homo sapiens, A549, 48 h, read-out: IC50 (μM) ± SEM, A549 (Lung Cancer)
[4] = EGFR wild type, tested at 100, 250, 500 and 720 nM, triplicate, read-out: EGFR Inhibition IC50 (nM) ± SEM

EGFR^WT, sequence (P00533 25-1210): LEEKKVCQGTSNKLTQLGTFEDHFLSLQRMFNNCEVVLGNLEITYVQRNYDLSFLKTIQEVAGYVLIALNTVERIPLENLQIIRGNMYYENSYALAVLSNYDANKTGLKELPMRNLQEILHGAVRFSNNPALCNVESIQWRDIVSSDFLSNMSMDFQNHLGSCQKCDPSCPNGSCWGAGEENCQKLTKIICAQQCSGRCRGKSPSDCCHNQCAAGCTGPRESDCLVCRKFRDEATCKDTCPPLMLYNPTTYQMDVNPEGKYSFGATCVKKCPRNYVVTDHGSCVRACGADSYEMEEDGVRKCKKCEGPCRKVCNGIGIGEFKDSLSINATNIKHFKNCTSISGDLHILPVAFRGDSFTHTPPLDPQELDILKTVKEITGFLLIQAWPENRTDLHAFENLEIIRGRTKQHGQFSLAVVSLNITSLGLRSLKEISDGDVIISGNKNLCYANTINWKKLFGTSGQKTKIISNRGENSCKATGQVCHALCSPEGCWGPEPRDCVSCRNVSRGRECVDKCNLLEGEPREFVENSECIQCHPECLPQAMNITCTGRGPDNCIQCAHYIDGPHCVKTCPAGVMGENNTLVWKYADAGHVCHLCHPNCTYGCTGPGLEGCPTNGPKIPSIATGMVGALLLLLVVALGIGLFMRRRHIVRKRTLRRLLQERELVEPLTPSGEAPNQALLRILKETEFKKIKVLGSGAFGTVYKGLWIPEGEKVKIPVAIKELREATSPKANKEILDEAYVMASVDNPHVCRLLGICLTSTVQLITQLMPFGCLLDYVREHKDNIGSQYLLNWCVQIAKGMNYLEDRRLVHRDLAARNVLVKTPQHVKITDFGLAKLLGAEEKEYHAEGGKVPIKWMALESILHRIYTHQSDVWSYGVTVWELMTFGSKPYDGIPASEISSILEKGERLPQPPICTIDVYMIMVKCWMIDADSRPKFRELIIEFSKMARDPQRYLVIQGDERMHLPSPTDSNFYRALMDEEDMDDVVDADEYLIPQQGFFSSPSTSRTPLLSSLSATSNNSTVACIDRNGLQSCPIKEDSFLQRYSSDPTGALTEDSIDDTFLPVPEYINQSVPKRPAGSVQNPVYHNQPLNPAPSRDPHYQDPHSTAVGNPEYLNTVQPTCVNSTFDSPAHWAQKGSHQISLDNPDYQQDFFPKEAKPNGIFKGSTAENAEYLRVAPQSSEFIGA

## COc1cc(-c2nc3ccccc3n3c(N)c(C#N)nc23)cc(OC)c1OC [Compound 5a]
EGFR^WT; EGFR wild type
  EGFR^WT inhibitory activity in words: poorly active or possessed no activity at all
EGFR^WT; [4]
  IC50: > 720 nM

## N#Cc1nc2c(-c3cccc([N+](=O)[O-])c3)nc3ccccc3n2c1N [Compound 5b]
EGFR^WT; [4]
  IC50: 244.45 ± 0.032 nM

## CN(C)c1ccc(-c2nc3ccccc3n3c(N)c(C#N)nc23)cc1 [Compound 5c, 1-Amino-4-(4-(dimethylamino)phenyl)imidazo[1,2-a]quinoxaline-2-carbonitrile]
other
  melting point: 169 to 171 °C
EGFR^WT; EGFR wild type
  EGFR^WT inhibitory activity in words: poorly active or possessed no activity at all
EGFR^WT; [4]
  IC50: > 720 nM

## CC(C)c1ccc(-c2nc3ccccc3n3c(N)c(C#N)nc23)cc1 [Compound 5d, 1-Amino-4-(4-isopropylphenyl)imidazo[1,2-a]quinoxaline-2-carbonitrile]
other
  melting point: 166 to 168 °C
EGFR^WT; EGFR wild type
  EGFR^WT inhibitory activity in words: poorly active or possessed no activity at all
EGFR^WT; [4]
  IC50: > 720 nM

## COc1ccc(OC)c(/C=N/c2c(C#N)nc3c(-c4cc(OC)ccc4OC)nc4ccccc4n23)c1 [Compound 6a]
EGFR^WT; [4]
  IC50: 429.81 ± 0.018 nM

## COc1cc(/C=N/c2c(C#N)nc3c(-c4cc(OC)c(OC)c(OC)c4)nc4ccccc4n23)cc(OC)c1OC [Compound 6b, (E)-1-((3,4,5-Trimethoxybenzylidene)amino)-4-(3,4,5-trimethoxyphenyl)imidazo[1,2-a]quinoxaline-2-carbonitrile]
A549 cells
  Cell cycle analysis G1 (%): 34.51%
[1]
  IC50: 4.1 ± 0.031 µM
MDA-MB-231 cells
  Percentage decrease in ROS, MDA-MB-231: marginal
MCF-7 (breast) cells
  Percentage decrease in ROS, MCF-7: marginal
EGFR^WT; [4]
  IC50: 211.22 ± 0.027 nM
[2]
  IC50: 5.1 ± 0.029 µM

## COc1ccc(/C=N/c2c(C#N)nc3c(-c4ccc(OC)c(OC)c4)nc4ccccc4n23)cc1OC [Compound 6c, (E)-1-((3,4-Dimethoxybenzylidene)amino)-4-(3,4-dimethoxy-phenyl)imidazo[1,2-a]quinoxaline-2-carbonitrile]
other
  melting point: 170 to 172 °C
EGFR^WT; EGFR wild type
  EGFR^WT inhibitory activity in words: poorly active or possessed no activity at all
EGFR^WT; [4]
  IC50: > 720 nM

## N#Cc1nc2c(-c3ccc(Cl)cc3)nc3ccccc3n2c1/N=C/c1ccc(Cl)cc1 [Compound 6d]
EGFR^WT; EGFR wild type
  EGFR^WT inhibitory activity in words: poorly active or possessed no activity at all
EGFR^WT; [4]
  IC50: > 720 nM

## COc1ccc(/C=N/c2c(C#N)nc3n2-c2ccccc2NC3c2ccc(OC)c(OC)c2)cc1OC (stereo not shown) [Compound 7a]
EGFR^WT; [4]
  IC50: > 720 nM

## N#Cc1nc2n(c1/N=C/c1ccccc1[N+](=O)[O-])-c1ccccc1NC2c1ccccc1[N+](=O)[O-] (stereo not shown) [Compound 7b]
EGFR^WT; [4]
  IC50: > 720 nM

## N#Cc1nc2n(c1/N=C/c1ccc(O)c(O)c1)-c1ccccc1NC2c1ccc(O)c(O)c1 (stereo not shown) [Compound 7c]
EGFR^WT; [4]
  IC50: 620.17 ± 0.019 nM

## COc1ccc(OC)c(/C=N/c2c(C#N)nc3n2-c2ccccc2NC3c2cc(OC)ccc2OC)c1 (stereo not shown) [Compound 7d]
EGFR^WT; [4]
  IC50: 652.56 ± 0.024 nM

## N#Cc1nc2n(c1/N=C/c1ccccc1Br)-c1ccccc1NC2c1ccccc1Br (stereo not shown) [Compound 7e]
EGFR^WT; [4]
  IC50: 665.89 ± 0.029 nM

## N#Cc1nc2n(c1/N=C/c1ccco1)-c1ccccc1NC2c1ccco1 (stereo not shown) [Compound 7f]
EGFR^WT; [4]
  IC50: 232.4 ± 0.031 nM

## N#Cc1nc2n(c1/N=C/c1ccc([N+](=O)[O-])cc1[N+](=O)[O-])-c1ccccc1NC2c1ccc([N+](=O)[O-])cc1[N+](=O)[O-] (stereo not shown) [Compound 7g]
EGFR^WT; [4]
  IC50: 476.87 ± 0.022 nM

## N#Cc1nc2n(c1/N=C/c1ccccc1F)-c1ccccc1NC2c1ccccc1F (stereo not shown) [Compound 7h]
[1]
  IC50: 11.2 ± 0.022 µM
EGFR^WT; [4]
  IC50: 222.21 ± 0.028 nM
[2]
  IC50: < 1 µM
[3]
  IC50: 4.09 ± 0.024 µM

## COc1cc(/C=N/c2c(C#N)nc3n2-c2ccccc2NC3c2cc(OC)c(OC)c(OC)c2)cc(OC)c1OC (stereo not shown) [Compound 7i]
EGFR^WT; EGFR wild type
  EGFR^WT inhibitory activity in words: poorly active or possessed no activity at all
EGFR^WT; [4]
  IC50: 613.37 ± 0.024 nM

## N#Cc1nc2n(c1/N=C/c1ccc([N+](=O)[O-])cc1)-c1ccccc1NC2c1ccc([N+](=O)[O-])cc1 (stereo not shown) [Compound 7j]
[1]
  IC50: 2.2 ± 0.026 µM
EGFR^WT
  IC50: 193.18 ± 0.021 nM
[2]
  IC50: < 1 µM
[3]
  IC50: 8.75 ± 0.028 µM

## N#Cc1ccc(/C=N/c2c(C#N)nc3n2-c2ccccc2NC3c2ccc(C#N)cc2)cc1 (stereo not shown) [Compound 7k, (E)-1-((4-Cyanobenzylidene)amino)-4-(4-cyanophenyl)-4,5-dihydroimidazo[1,2-a]quinoxaline-2-carbonitrile]
other
  melting point: 173 to 175 °C
EGFR^WT; EGFR wild type
  EGFR^WT inhibitory activity in words: poorly active or possessed no activity at all
EGFR^WT; [4]
  IC50: > 720 nM

## N#Cc1ccc(C2Nc3ccccc3-n3c2nc(C#N)c3N)cc1 (stereo not shown) [Compound 8a]
EGFR^WT; [4]
  IC50: > 720 nM

## N#Cc1nc2n(c1N)-c1ccccc1NC2c1cccc([N+](=O)[O-])c1 (stereo not shown) [Compound 8b]
EGFR^WT; [4]
  IC50: > 720 nM

## N#Cc1nc2n(c1N)-c1ccccc1NC2c1ccccc1[N+](=O)[O-] (stereo not shown) [Compound 8c, 1-Amino-4-(2-nitrophenyl)-4,5-dihydroimidazo[1,2-a]quinoxaline-2-carbonitrile]
other
  melting point: 165 to 167 °C
EGFR^WT; [4]
  IC50: > 720 nM

## C/C(=N\c1c(C#N)nc2n1-c1ccccc1NC2(C)c1ccc(Cl)cc1)c1ccc(Cl)cc1 (stereo not shown) [Compound 9a]
[1]
  IC50: 14.1 ± 0.021 µM
EGFR^WT; [4]
  IC50: 223.32 ± 0.031 nM
[2]
  IC50: > 25 µM
[3]
  IC50: 6.63 ± 0.031 µM

## C/C(=N\c1c(C#N)nc2n1-c1ccccc1NC2(C)c1cccs1)c1cccs1 (stereo not shown) [Compound 9b]
EGFR^WT; [4]
  IC50: 244.51 ± 0.021 nM

## COc1ccc(/C(C)=N/c2c(C#N)nc3n2-c2ccccc2NC3(C)c2ccc(OC)c(OC)c2)cc1OC (stereo not shown) [Compound 9c]
[1]
  IC50: 13.6 ± 0.028 µM
EGFR^WT; [4]
  IC50: 221.53 ± 0.028 nM
[2]
  IC50: 7.9 ± 0.027 µM
[3]
  IC50: 12.06 ± 0.021 µM

## CC1(c2cccc([N+](=O)[O-])c2)Nc2ccccc2-n2c1nc(C#N)c2N (stereo not shown) [Compound 10a]
EGFR^WT; [4]
  IC50: 247.32 ± 0.021 nM

## N#Cc1nc2n(c1N)-c1ccccc1NC2(C(=O)c1ccccc1)c1ccccc1 (stereo not shown) [Compound 10c]
EGFR^WT; [4]
  IC50: 716.32 ± 0.026 nM

## CC1(C)Nc2ccccc2-n2c1nc(C#N)c2N [Compound 10d]
EGFR^WT; [4]
  IC50: 624.57 ± 0.024 nM

## N#Cc1nc2n(c1N)-c1ccccc1N1C(=O)CCC21 (stereo not shown) [Compound 11]
EGFR^WT; EGFR wild type
  EGFR^WT inhibitory activity in words: poorly active or possessed no activity at all
EGFR^WT; [4]
  IC50: 669.39 ± 0.019 nM

## C#Cc1cccc(Nc2ncnc3cc(OCCOC)c(OCCOC)cc23)c1 [Erlotinib, erlotinib, reference compound]
[1]
  IC50: 3.33 ± 0.018 µM
[2]
  IC50: 2.98 ± 0.023 µM

— article PMC7967119, “Design and Synthesis of Non-Covalent Imidazo[1,2-a]quinoxaline-Based Inhibitors of EGFR and Their Anti-Cancer Assessment” (Molecules, 2021)
